How the values were obtained:
[1] = target: Receptor-type tyrosine-protein kinase FLT3 (Homo sapiens, UniProt P36888); test: Inhibition of FLT3 (unknown origin) incubated for 40 mins by radiometric kinase assay
[2] = target: Tyrosine-protein kinase Blk (Homo sapiens) (UniProt P51451); test: Inhibition of BLK (unknown origin) at 0.2 uM incubated for 40 mins by radiometric kinase assay relative to control
[3] = target: Serine/threonine-protein kinase B-raf (Homo sapiens) (UniProt P15056); test: Inhibition of B-Raf (unknown origin) at 0.2 uM incubated for 40 mins by radiometric kinase assay relative to control
[4] = target: Calcium/calmodulin-dependent protein kinase kinase 2 (Homo sapiens) (UniProt Q96RR4); test: Inhibition of CaMKK2 (unknown origin) at 0.2 uM incubated for 40 mins by radiometric kinase assay relative to control
[5] = target: Vascular endothelial growth factor receptor 3 (Homo sapiens) (UniProt P35916); test: Inhibition of FLT4 (unknown origin) at 0.2 uM incubated for 40 mins by radiometric kinase assay relative to control
[6] = target: Macrophage colony-stimulating factor 1 receptor (Homo sapiens) (UniProt P07333); test: Inhibition of Fms (unknown origin) at 0.2 uM incubated for 40 mins by radiometric kinase assay relative to control
[7] = target: Tyrosine-protein kinase HCK (Homo sapiens) (UniProt P08631); test: Inhibition of HCK (unknown origin) at 0.2 uM incubated for 40 mins by radiometric kinase assay relative to control
[8] = target: Histone deacetylase (Homo sapiens) (UniProt Q13547+O15379+Q9UBN7+Q92769+Q9UQL6+Q8WUI4+Q9BY41+Q96DB2+P56524+Q9UKV0+Q969S8); test: Inhibition of HDAC (unknown origin) at 0.2 uM incubated for 40 mins by radiometric kinase assay relative to control; assay type: protein assay
[9] = target: PI3-kinase p110-alpha/p85-alpha (Homo sapiens) (UniProt P27986+P42336); test: Inhibition of PI3 Kinase p110a/p85a (unknown origin) at 0.2 uM incubated for 40 mins by radiometric kinase assay relative to control; assay type: protein-complex assay
[10] = target: Death-associated protein kinase 3 (Homo sapiens) (UniProt O43293); test: Inhibition of ZIPK (unknown origin) at 0.2 uM incubated for 40 mins by radiometric kinase assay relative to control
JeKo-1 [11] = test: Potency index, ratio of spebrutinib IC50 to test compound IC50 for antiproliferative activity against human JeKo-1 cells; assay type: functional
MOLT-4 [12] = test: Potency index, ratio of spebrutinib IC50 to test compound IC50 for antiproliferative activity against human MOLT-4 cells; assay type: functional
JeKo-1 [13] = test: Potency index, ratio of ibrutinib IC50 to test compound IC50 for antiproliferative activity against human JeKo-1 cells; assay type: functional
MOLT-4 [14] = test: Potency index, ratio of ibrutinib IC50 to test compound IC50 for antiproliferative activity against human MOLT-4 cells; assay type: functional
[15] = target: Receptor-type tyrosine-protein kinase FLT3 (Homo sapiens) (UniProt P36888); test: Inhibition of FLT3 phosphorylation in human JeKo-1 cells incubated for 72 hrs by Western blot analysis; assay type: cell-based; conditions: dose 30-750 nM
JeKo-1 [16] = test: Induction of apoptosis in human JeKo-1 cells assessed as early apoptotic cells at 30 nM incubated for 72 hrs by Annexin VFITC/PI staining based flow cytometry analysis (reference value: 3.10%); assay type: functional
JeKo-1 [17] = test: Induction of apoptosis in human JeKo-1 cells assessed as viable cells at 150 nM incubated for 72 hrs by Annexin VFITC/PI staining based flow cytometry analysis (reference value: 94.81%); assay type: functional; conditions: read-out: Activity
JeKo-1 [18] = test: Induction of apoptosis in human JeKo-1 cells assessed as early apoptotic cells at 150 nM incubated for 72 hrs by Annexin VFITC/PI staining based flow cytometry analysis (reference value: 3.10%); assay type: functional
JeKo-1 [19] = test: Induction of apoptosis in human JeKo-1 cells assessed as late apoptotic cells at 150 nM incubated for 72 hrs by Annexin VFITC/PI staining based flow cytometry analysis (reference value: 1.42%); assay type: functional
JeKo-1 [20] = test: Induction of apoptosis in human JeKo-1 cells assessed as viable cells at 750 nM incubated for 72 hrs by Annexin VFITC/PI staining based flow cytometry analysis (reference value: 94.81%); assay type: functional; conditions: Homo sapiens, JeKo-1, read-out: Activity
JeKo-1 [21] = test: Induction of apoptosis in human JeKo-1 cells assessed as necrotic cells at 750 nM incubated for 72 hrs by Annexin VFITC/PI staining based flow cytometry analysis (reference value: 0.67%); assay type: functional
JeKo-1 [22] = test: Induction of apoptosis in human JeKo-1 cells assessed as upregulation of p53 protein expression incubated for 72 hrs by Western blot analysis; assay type: functional, cell-based; conditions: dose 30-750 nM
[23] = Metabolic stability in human liver microsome assessed as intrinsic clearance preincubated with compound for 5 mins followed by NADPH addition and measured upto 60 mins by LC-MS/MS analysis; assay type: ADME; conditions: liver microsomes, time < 65 min, read-out: CLH
[24] = Acute toxicity in ICR mouse assessed as animal survival at 468.8 mg/kg, ip measured for 2 weeks; assay type: organism-based; conditions: in vivo
PBMC = test: Cytotoxicity against human PBMC cells assessed as reduction in cell viability; assay type: toxicity, cell-based
JeKo-1 [25] = test: Antitumor activity against human JeKo-1 cells xenografted NOD/SCID mouse assessed as tumor growth inhibition at 25 mg/kg, ip measured for 16 days; assay type: functional; conditions: JeKo-1, 384 h, time 16 day, read-out: TGI
JeKo-1 [26] = test: Antitumor activity against human JeKo-1 cells xenografted NOD/SCID mouse assessed as tumor growth inhibition at 50 mg/kg, ip measured for 16 days; assay type: functional; conditions: JeKo-1, 384 h, time 16 day, read-out: TGI
[27] = Toxicity in NOD/SCID mouse xenografted with human JeKo-1 cells assessed as drinking abnormalities at 25 to 50 mg/kg, ip measured for 16 days; assay type: organism-based; conditions: in vivo, 384 h, dose 25-50 mg/kg, time 16 day
JeKo-1 [28] = test: Antitumor activity against human JeKo-1 cells xenografted NOD/SCID mouse assessed as reduction in tumor weight at 50 mg/kg, ip measured for 16 days; assay type: functional; conditions: time 16 day
MV4-11 [29] = test: Antitumor activity against human MV4-11 cells xenografted in ip dosed NOD/SCID mouse assessed as suppression of tumor growth administered once daily for 21 days; assay type: functional, organism-based; conditions: dose 10-20 mg/kg, time 21.0 day
MV4-11 [30] = test: Antitumor activity against human MV4-11 cells xenografted in NOD/SCID mouse assessed as tumor growth inhibition at 10 mg/kg ip administered once daily for 21 days; assay type: functional; conditions: MV4-11, 504 h, time 21 day, read-out: TGI
MV4-11 [31] = test: Antitumor activity against human MV4-11 cells xenografted NOD/SCID mouse assessed as reduction in tumor weight at 10 mg/kg, ip administered once daily for 21 days; assay type: functional; conditions: time 21 day
MV4-11 [32] = test: Antitumor activity against human MV4-11 cells xenografted NOD/SCID mouse assessed as reduction in tumor weight at 20 mg/kg, ip administered once daily for 21 days; assay type: functional; conditions: time 21 day
JeKo-1 [33] = test: cells; conditions: Homo sapiens, JeKo-1, 72 h
Description: Antiproliferative activity against human JeKo-1 cells assessed as inhibition of cell growth incubated for 72 hrs by CCK8 assay

P-glycoprotein = test: in vitro; conditions: human, Caco-2
Description: Efflux ratio of apparent permeability across basolateral to apical side over apical to basolateral side in human Caco-2 cells incubated for 120 mins in presence of P-glycoprotein by LC-MS/MS analysis

Sequence of Tyrosine-protein kinase HCK (Homo sapiens) (P08631 2-526 limits assumed): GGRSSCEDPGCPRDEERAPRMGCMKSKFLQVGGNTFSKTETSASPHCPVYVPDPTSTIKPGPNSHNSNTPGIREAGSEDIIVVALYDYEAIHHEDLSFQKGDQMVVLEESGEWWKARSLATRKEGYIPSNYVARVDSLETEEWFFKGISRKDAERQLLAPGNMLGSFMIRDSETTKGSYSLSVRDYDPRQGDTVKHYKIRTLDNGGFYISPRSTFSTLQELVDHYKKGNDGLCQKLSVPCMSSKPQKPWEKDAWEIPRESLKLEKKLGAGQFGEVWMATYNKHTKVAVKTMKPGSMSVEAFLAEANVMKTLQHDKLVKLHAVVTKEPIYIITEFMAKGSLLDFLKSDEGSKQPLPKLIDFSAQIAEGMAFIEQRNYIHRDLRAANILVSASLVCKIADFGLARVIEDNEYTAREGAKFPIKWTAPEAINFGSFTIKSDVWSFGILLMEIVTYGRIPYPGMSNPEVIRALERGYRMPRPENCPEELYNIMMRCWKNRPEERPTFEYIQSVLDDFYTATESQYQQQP
Sequence of Macrophage colony-stimulating factor 1 receptor (Homo sapiens) (P07333 whole entry): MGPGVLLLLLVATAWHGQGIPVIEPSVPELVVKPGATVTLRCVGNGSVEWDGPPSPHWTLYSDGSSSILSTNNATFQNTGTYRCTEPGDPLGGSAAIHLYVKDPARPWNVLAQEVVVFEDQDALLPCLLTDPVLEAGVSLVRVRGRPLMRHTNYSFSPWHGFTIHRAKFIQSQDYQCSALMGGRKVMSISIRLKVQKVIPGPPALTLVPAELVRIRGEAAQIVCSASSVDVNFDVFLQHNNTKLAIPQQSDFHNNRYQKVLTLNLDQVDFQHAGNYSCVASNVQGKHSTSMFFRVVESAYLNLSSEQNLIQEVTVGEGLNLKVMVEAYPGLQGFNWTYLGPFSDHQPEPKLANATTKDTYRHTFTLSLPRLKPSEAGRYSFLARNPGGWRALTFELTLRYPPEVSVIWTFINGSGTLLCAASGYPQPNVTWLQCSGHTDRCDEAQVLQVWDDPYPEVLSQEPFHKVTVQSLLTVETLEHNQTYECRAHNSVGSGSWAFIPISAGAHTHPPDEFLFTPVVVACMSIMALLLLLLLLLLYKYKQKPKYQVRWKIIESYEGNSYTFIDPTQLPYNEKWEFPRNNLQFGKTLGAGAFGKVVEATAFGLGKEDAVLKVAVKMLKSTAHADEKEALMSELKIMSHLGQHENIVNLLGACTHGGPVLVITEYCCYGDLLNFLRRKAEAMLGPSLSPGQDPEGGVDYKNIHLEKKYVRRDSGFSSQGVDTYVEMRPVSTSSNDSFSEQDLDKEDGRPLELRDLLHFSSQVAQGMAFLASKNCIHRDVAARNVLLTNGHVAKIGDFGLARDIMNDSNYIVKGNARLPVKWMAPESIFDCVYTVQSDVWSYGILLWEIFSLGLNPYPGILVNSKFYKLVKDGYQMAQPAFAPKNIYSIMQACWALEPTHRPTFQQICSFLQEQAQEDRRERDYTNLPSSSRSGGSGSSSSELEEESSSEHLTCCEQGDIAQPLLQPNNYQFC
Sequence of Death-associated protein kinase 3 (Homo sapiens) (O43293 whole entry, looked up): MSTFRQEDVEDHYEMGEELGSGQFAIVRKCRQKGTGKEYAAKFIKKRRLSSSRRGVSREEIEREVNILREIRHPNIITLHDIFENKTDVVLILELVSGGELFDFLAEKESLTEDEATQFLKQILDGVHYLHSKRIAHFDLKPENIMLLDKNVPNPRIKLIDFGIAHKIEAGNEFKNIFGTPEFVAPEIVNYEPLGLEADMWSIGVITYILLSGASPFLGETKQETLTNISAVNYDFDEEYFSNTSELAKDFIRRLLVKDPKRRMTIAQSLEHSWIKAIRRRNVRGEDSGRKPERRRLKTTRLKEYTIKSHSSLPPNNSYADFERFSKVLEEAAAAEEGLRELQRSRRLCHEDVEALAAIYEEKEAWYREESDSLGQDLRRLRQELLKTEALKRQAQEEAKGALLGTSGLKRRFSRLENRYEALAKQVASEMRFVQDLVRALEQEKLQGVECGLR
Sequence of Tyrosine-protein kinase Blk (Homo sapiens) (P51451 2-505 limits assumed): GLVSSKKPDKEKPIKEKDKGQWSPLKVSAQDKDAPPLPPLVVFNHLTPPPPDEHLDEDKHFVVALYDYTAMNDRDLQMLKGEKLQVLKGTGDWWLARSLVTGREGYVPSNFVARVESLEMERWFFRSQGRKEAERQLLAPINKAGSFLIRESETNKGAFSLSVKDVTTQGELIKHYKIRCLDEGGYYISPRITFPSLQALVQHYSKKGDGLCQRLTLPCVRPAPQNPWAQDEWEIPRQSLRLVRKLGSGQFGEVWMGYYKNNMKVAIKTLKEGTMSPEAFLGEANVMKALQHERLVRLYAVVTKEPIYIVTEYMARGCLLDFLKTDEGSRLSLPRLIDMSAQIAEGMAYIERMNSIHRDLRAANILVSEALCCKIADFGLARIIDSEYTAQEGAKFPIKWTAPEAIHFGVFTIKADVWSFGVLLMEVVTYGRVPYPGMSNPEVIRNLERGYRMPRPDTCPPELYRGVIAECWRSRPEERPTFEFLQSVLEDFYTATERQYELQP
Sequence of Calcium/calmodulin-dependent protein kinase kinase 2 (Homo sapiens) (Q96RR4 2-588 limits assumed): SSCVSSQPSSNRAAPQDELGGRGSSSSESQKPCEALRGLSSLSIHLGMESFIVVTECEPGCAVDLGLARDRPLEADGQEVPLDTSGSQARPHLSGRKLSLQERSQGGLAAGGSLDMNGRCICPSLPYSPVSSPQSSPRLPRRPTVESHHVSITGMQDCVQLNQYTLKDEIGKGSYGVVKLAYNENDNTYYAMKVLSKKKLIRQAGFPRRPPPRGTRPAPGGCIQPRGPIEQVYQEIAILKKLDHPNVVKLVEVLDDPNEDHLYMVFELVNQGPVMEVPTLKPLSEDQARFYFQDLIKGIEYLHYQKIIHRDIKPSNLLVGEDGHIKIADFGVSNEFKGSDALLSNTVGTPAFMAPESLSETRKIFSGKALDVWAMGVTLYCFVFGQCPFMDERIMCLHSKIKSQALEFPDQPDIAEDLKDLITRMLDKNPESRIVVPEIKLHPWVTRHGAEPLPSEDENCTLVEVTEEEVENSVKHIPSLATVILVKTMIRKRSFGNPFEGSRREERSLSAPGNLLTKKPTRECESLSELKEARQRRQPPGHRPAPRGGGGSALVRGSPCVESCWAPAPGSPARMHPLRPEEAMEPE
Sequence of Receptor-type tyrosine-protein kinase FLT3 (P36888 whole entry): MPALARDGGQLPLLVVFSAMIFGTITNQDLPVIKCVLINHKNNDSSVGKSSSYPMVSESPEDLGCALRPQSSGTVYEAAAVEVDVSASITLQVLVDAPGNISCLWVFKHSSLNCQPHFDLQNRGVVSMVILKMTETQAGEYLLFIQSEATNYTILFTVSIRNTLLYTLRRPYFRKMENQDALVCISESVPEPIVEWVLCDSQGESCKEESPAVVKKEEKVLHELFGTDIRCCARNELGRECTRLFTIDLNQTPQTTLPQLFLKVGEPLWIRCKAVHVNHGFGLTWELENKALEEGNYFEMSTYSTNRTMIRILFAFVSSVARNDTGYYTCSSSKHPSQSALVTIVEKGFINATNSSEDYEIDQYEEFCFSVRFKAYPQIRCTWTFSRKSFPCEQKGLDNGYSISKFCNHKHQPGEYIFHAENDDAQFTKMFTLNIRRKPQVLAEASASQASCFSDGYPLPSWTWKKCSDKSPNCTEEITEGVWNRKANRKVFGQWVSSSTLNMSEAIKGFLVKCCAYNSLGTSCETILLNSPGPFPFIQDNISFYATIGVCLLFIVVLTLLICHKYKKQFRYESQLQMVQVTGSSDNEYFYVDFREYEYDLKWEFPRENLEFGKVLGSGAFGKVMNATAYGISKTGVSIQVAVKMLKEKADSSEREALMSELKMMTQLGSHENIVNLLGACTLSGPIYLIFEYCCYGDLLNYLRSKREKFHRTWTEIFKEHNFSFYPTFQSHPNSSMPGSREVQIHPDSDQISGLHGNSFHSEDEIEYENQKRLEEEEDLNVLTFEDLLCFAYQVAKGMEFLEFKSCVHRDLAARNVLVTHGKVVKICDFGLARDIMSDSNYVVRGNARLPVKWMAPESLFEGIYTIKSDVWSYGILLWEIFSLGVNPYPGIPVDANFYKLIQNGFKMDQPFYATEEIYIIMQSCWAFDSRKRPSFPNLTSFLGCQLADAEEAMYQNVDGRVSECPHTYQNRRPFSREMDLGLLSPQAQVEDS
Sequence of Receptor-type tyrosine-protein kinase FLT3 (Homo sapiens) (P36888 whole entry): as above
Sequence of Serine/threonine-protein kinase B-raf (Homo sapiens) (P15056 whole entry): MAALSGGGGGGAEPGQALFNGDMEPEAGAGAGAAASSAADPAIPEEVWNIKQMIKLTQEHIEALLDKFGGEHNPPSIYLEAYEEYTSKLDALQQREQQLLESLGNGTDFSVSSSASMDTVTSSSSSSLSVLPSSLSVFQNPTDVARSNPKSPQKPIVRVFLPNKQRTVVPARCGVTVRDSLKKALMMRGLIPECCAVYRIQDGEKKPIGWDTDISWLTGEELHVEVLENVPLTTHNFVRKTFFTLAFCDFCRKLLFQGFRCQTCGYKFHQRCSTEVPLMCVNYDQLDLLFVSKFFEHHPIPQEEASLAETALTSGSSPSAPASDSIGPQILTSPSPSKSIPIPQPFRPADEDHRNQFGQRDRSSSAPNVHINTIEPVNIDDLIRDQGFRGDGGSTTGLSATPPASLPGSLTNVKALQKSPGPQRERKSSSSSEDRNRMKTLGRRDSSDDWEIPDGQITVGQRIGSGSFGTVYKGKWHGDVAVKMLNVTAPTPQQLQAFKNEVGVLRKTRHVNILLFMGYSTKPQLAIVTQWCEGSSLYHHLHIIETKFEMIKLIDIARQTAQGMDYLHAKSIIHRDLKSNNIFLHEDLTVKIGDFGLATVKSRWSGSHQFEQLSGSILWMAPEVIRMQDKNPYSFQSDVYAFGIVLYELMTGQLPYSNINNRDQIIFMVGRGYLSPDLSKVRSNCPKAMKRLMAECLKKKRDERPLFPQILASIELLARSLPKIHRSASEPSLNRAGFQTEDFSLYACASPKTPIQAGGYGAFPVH

## CN1CCN(c2ccc(Nc3ncc(F)c(Nc4ccccc4C(=O)NN)n3)cc2)CC1
[1]
  IC50: 12 nM
[2]
  inhibition: 62%
[3]
  inhibition: 17%
[4]
  inhibition: 27%
[5]
  inhibition: 100%
[6]
  inhibition: 67%
[7]
  inhibition: 27%
[8]
  inhibition: 5%
[9]
  inhibition: 13%
[10]
  inhibition: 26%
JeKo-1 [11]
  Ratio IC50: 8
MOLT-4 [12]
  Ratio IC50: 8
JeKo-1 [13]
  Ratio IC50: 6
MOLT-4 [14]
  Ratio IC50: 6
[15]
  inhibition: Dose-Dependent Effect
JeKo-1 [16]
  Activity: 12.08%
JeKo-1 [17]
  viability at 0.15 µM: 72.4%
JeKo-1 [18]
  Activity: 25.6%
JeKo-1 [19]
  Activity: 1.65%
JeKo-1 [20]
  viability at 0.75 µM: 61.5%
JeKo-1 [21]
  Activity: 0.11%
JeKo-1 [22]
  Activity: Dose-Dependent Effect
[23]
  CLint scaled: 30.1 mL/min/kg
[24]
  survival at 336 h: 10%
PBMC
  Activity: Non-Toxic
JeKo-1 [25]
  inhibition in vivo at 25 mg/kg: 67%
JeKo-1 [26]
  inhibition in vivo at 50 mg/kg: 79.8%
[27]
  Activity: Non-Toxic
JeKo-1 [28]
  Activity: 0.18 g
MV4-11 [29]
  Activity: Dose-Dependent Effect
MV4-11 [30]
  inhibition in vivo at 10 mg/kg: 74.2%
MV4-11 [31]
  Activity: 0.33 g
MV4-11 [32]
  Activity: 0.08 g
JeKo-1 [33]
  IC50: 17 nM
P-glycoprotein
  efflux ratio at 2 h: 2.64

Source: ChEMBL document CHEMBL5385861, “Development of novel hydrazidoarylaminopyrimidine-based BTK/FLT3 dual inhibitors with potent in vivo anti-hematological malignancies effects” (Eur J Med Chem, 2023)
